Numbers after ± are expanded uncertainties.
Conditions: Liquid, Vibrating tube method

CCCCCCC [heptane]
Conditions	mass density [kg/m3]
303.15 K, 19974 kPa	693.813 ± 0.88
303.15 K, 21920 kPa	695.403 ± 0.88
303.15 K, 24992 kPa	697.736 ± 0.9
303.15 K, 31958 kPa	702.727 ± 0.93
303.15 K, 32862 kPa	703.514 ± 0.93
303.15 K, 33112 kPa	703.9 ± 0.93
303.15 K, 34081 kPa	704.468 ± 0.94
303.15 K, 34980 kPa	705.109 ± 0.94
303.15 K, 37951 kPa	707.216 ± 0.96
303.15 K, 39904 kPa	708.418 ± 0.97
303.15 K, 42014 kPa	709.635 ± 0.98
303.15 K, 44896 kPa	711.236 ± 0.99
303.15 K, 47951 kPa	713.224 ± 1
303.15 K, 50065 kPa	714.711 ± 1
303.15 K, 52073 kPa	715.915 ± 1
303.15 K, 55074 kPa	717.452 ± 1.1
303.15 K, 57989 kPa	719.654 ± 1.1
303.15 K, 59979 kPa	720.537 ± 1.1
303.15 K, 62052 kPa	721.855 ± 1.1
303.15 K, 64988 kPa	723.925 ± 1.1
303.15 K, 66030 kPa	724.328 ± 1.1
303.16 K, 2964.9 kPa	678.337 ± 0.82
303.16 K, 7045.6 kPa	682.343 ± 0.83
303.16 K, 8858.2 kPa	683.448 ± 0.84
303.16 K, 10014 kPa	684.334 ± 0.84
303.16 K, 18021 kPa	692.198 ± 0.87
303.16 K, 27933 kPa	699.906 ± 0.91
303.16 K, 29990 kPa	701.007 ± 0.92
308.15 K, 105 kPa	671.006 ± 0.81
308.15 K, 274.3 kPa	671.143 ± 0.81
308.15 K, 494.1 kPa	671.318 ± 0.81
308.15 K, 803.3 kPa	671.687 ± 0.81
308.15 K, 1039.5 kPa	672.093 ± 0.82
308.15 K, 1916.7 kPa	672.909 ± 0.82
308.15 K, 2980.7 kPa	674.097 ± 0.82
308.15 K, 4990.2 kPa	676.132 ± 0.82
308.15 K, 6964.9 kPa	678.143 ± 0.83
308.15 K, 8864.3 kPa	679.887 ± 0.84
308.15 K, 9863.1 kPa	680.761 ± 0.84
308.15 K, 12009 kPa	682.857 ± 0.85
308.15 K, 17850 kPa	687.815 ± 0.87
308.15 K, 19930 kPa	689.488 ± 0.88
308.15 K, 21988 kPa	691.177 ± 0.89
308.15 K, 25012 kPa	693.658 ± 0.9
308.15 K, 27955 kPa	695.718 ± 0.91
308.15 K, 29906 kPa	696.905 ± 0.92
308.15 K, 31929 kPa	698.302 ± 0.93
308.15 K, 32886 kPa	699.002 ± 0.94
308.15 K, 32941 kPa	698.96 ± 0.94
308.15 K, 34011 kPa	700.438 ± 0.94
308.15 K, 37971 kPa	703.176 ± 0.96
308.15 K, 40011 kPa	704.309 ± 0.97
308.15 K, 41998 kPa	705.614 ± 0.98
308.15 K, 45017 kPa	707.854 ± 1
308.15 K, 48033 kPa	709.906 ± 1
308.15 K, 50044 kPa	711.265 ± 1
308.15 K, 51977 kPa	712.584 ± 1
308.15 K, 54982 kPa	714.563 ± 1.1
308.15 K, 58009 kPa	716.265 ± 1.1
308.15 K, 60030 kPa	717.688 ± 1.1
308.15 K, 61985 kPa	718.959 ± 1.1
308.15 K, 64980 kPa	720.569 ± 1.1
308.16 K, 15069 kPa	685.368 ± 0.86
308.16 K, 34949 kPa	701.078 ± 0.95
308.16 K, 66088 kPa	721.543 ± 1.1
313.15 K, 100.8 kPa	666.87 ± 0.81
313.15 K, 316 kPa	667.185 ± 0.81
313.15 K, 569.6 kPa	667.234 ± 0.81
313.15 K, 1088.8 kPa	668.002 ± 0.82
313.15 K, 2109.7 kPa	669.053 ± 0.82
313.15 K, 3137 kPa	670.192 ± 0.82
313.15 K, 5111.8 kPa	672.198 ± 0.83
313.15 K, 6921.8 kPa	674.169 ± 0.83
313.15 K, 9210.7 kPa	676.379 ± 0.84
313.15 K, 10209 kPa	677.309 ± 0.84
313.15 K, 12020 kPa	679.079 ± 0.85
313.15 K, 15059 kPa	681.665 ± 0.86
313.15 K, 17921 kPa	684.308 ± 0.87
313.15 K, 19932 kPa	686.1 ± 0.88
313.15 K, 22058 kPa	687.733 ± 0.89
313.15 K, 24862 kPa	690.068 ± 0.9
313.15 K, 27869 kPa	692.385 ± 0.91
313.15 K, 29957 kPa	693.806 ± 0.92
313.15 K, 32107 kPa	695.43 ± 0.93
313.15 K, 32980 kPa	696.141 ± 0.94
313.15 K, 33002 kPa	696.147 ± 0.94
313.15 K, 33981 kPa	697.086 ± 0.94
313.15 K, 35045 kPa	697.948 ± 0.95
313.15 K, 38127 kPa	700.098 ± 0.96
313.15 K, 41978 kPa	702.778 ± 0.99
313.15 K, 44946 kPa	704.758 ± 1
313.15 K, 47880 kPa	706.851 ± 1
313.15 K, 52097 kPa	709.812 ± 1
313.15 K, 54924 kPa	711.549 ± 1.1
313.15 K, 58082 kPa	713.474 ± 1.1
313.15 K, 59932 kPa	714.707 ± 1.1
313.15 K, 62004 kPa	716.103 ± 1.1
313.15 K, 64954 kPa	717.814 ± 1.1
313.15 K, 66113 kPa	718.367 ± 1.1
313.16 K, 860.7 kPa	667.671 ± 0.82
313.16 K, 39997 kPa	701.327 ± 0.97
313.16 K, 50021 kPa	708.33 ± 1
318.15 K, 100.7 kPa	662.812 ± 0.81
318.15 K, 336.3 kPa	663.228 ± 0.81
318.15 K, 1105.7 kPa	663.94 ± 0.82
318.15 K, 1929.1 kPa	664.905 ± 0.82
318.15 K, 2933.2 kPa	665.972 ± 0.82
318.15 K, 8989 kPa	672.331 ± 0.84
318.15 K, 10074 kPa	673.533 ± 0.84
318.15 K, 11896 kPa	675.253 ± 0.85
318.15 K, 18102 kPa	681.046 ± 0.87
318.15 K, 19985 kPa	682.727 ± 0.88
318.15 K, 22094 kPa	684.679 ± 0.89
318.15 K, 29998 kPa	691.196 ± 0.93
318.15 K, 33016 kPa	693.259 ± 0.94
318.15 K, 33180 kPa	693.331 ± 0.94
318.15 K, 37838 kPa	697.046 ± 0.97
318.15 K, 40092 kPa	698.439 ± 0.98
318.15 K, 44884 kPa	701.561 ± 1
318.15 K, 47944 kPa	703.663 ± 1
318.15 K, 54944 kPa	708.215 ± 1.1
318.15 K, 57972 kPa	710.506 ± 1.1
318.15 K, 59922 kPa	711.605 ± 1.1
318.15 K, 65022 kPa	714.898 ± 1.1
318.15 K, 66028 kPa	715.438 ± 1.1
318.16 K, 590.9 kPa	663.443 ± 0.81
318.16 K, 891 kPa	663.766 ± 0.82
318.16 K, 5020.8 kPa	668.355 ± 0.83
318.16 K, 6926.7 kPa	670.309 ± 0.83
318.16 K, 14800 kPa	678.075 ± 0.86
318.16 K, 24873 kPa	686.865 ± 0.9
318.16 K, 27909 kPa	689.38 ± 0.92
318.16 K, 31957 kPa	692.414 ± 0.94
318.16 K, 34110 kPa	694.119 ± 0.95
318.16 K, 35048 kPa	694.934 ± 0.95
318.16 K, 41996 kPa	699.6 ± 0.99
318.16 K, 49950 kPa	705.2 ± 1
318.16 K, 52037 kPa	706.412 ± 1
318.16 K, 61930 kPa	712.85 ± 1.1
323.15 K, 102.3 kPa	658.378 ± 0.81
323.15 K, 296.1 kPa	658.71 ± 0.81
323.15 K, 528.4 kPa	658.782 ± 0.81
323.15 K, 994.2 kPa	659.429 ± 0.82
323.15 K, 2006.9 kPa	660.61 ± 0.82
323.15 K, 2966.6 kPa	661.806 ± 0.82
323.15 K, 4996.2 kPa	663.968 ± 0.83
323.15 K, 7042.1 kPa	666.276 ± 0.83
323.15 K, 9029.9 kPa	667.858 ± 0.84
323.15 K, 10090 kPa	669.742 ± 0.84
323.15 K, 11914 kPa	670.973 ± 0.85
323.15 K, 15111 kPa	674.373 ± 0.86
323.15 K, 17981 kPa	677.251 ± 0.87
323.15 K, 20038 kPa	678.71 ± 0.88
323.15 K, 21995 kPa	680.737 ± 0.89
323.15 K, 24993 kPa	683.213 ± 0.9
323.15 K, 32079 kPa	689.177 ± 0.94
323.15 K, 33103 kPa	689.972 ± 0.94

Source: the NIST ThermoML archive (doi:10.1021/je5010214)
